# Results published in paper PMC10056611, “Synthesis and Biological Evaluation of 3-Amino-4,4-Dimethyl Lithocholic Acid Derivatives as Novel, Selective, and Cellularly Active Allosteric SHP1 Activators” (Molecules, 2023).
# “And” between values parts separate entries of the source, which are not always exact repeats. Identical values can stand only once.
# What was measured:
# [1] = molecular target: SHP1 (Homo sapiens, UniProt P29350); assay: SHP1 enzyme assay (DiFMUP fluorogenic substrate), activation; assay type: biochemical; details: DiFMUP assay; for EC50 / Maximum Activation Fold: mean ± SEM
# Description: The SHP1-activating effects of the synthetic compounds were examined by the 6,8-difluoro-4-methylumbelliferyl phosphate (DiFMUP) assay.
# The proteins SHP1 and SHP2, containing a GST-tag, were expressed in E. coli. 6,8-Difluoro-4-methylumbelliferyl phosphate (DiFMUP) was used as the fluorogenic substrate. Fluorescence data were collected by the Envision (PerkinElmer, Waltham, MA, USA) plate reader, using excitation and emission wavelengths of 358 and 455 nm, respectively. A sigmoidal dose-response curve was fitted to the data, and the EC50 values were calculated using GraphPad Prism. In the data processing, the fitting and curves were calculated using nonlinear regression, and the fold value of the compound was calculated using the software GraphPad Prism 8. The folds were obtained according to the equation: Y = Bottom + (Top-Bottom)/(1 + 10^((LogEC50-X) × HillSlope)). The data represent mean values ± standard error of the mean (SEM) of eight-point experiments, each performed in triplicates from three independent experiments.
# SHP1, sequence (P29350 whole entry): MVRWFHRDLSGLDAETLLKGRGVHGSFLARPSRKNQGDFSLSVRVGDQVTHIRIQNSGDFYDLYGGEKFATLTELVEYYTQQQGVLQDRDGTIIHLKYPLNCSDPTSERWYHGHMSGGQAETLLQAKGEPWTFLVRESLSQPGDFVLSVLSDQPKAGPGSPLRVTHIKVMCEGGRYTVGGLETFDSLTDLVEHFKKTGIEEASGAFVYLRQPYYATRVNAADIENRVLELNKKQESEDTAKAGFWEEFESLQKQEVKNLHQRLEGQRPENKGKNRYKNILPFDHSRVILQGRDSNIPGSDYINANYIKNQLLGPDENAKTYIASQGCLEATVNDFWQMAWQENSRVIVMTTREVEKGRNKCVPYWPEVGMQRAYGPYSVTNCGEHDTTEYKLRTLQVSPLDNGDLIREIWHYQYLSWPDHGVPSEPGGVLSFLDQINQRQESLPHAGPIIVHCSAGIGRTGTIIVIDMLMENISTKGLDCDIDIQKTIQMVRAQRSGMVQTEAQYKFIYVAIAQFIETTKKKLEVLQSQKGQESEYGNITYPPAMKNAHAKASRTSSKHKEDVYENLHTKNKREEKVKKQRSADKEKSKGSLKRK
SMILES,EC50 [1] [µM],Maximum Activation Fold [1],melting point [°C],SHP1 activity (in words) [1]
CCC(O)(CC)CC[C@@H](C)[C@H]1CCC2C3CC=C4C(C)(C)C(N)CC[C@]4(C)C3CC[C@@]21C (stereo partly drawn) [Compound 5at],12.9 ± 0.3,6.50 ± 0.12 fold,> 300,–
C[C@H](CCCO)[C@H]1CCC2C3C(O)C=C4C(C)(C)C(N)CC[C@]4(C)C3CC[C@@]21C (stereo partly drawn) [Compound 5ai],> 50,–,171.4 to 173.2,–
C[C@H](CCCO)[C@H]1CCC2C3CC=C4C(C)(C)C(N5CCC5)CC[C@]4(C)C3CC[C@@]21C (stereo partly drawn) [Compound 5af],> 50,–,174.9 to 177.6,–
C[C@H](CCCOc1ccc(NC(=O)Nc2ccc(Cl)c(C(F)(F)F)c2)cc1)[C@H]1CCC2C3CC=C4C(C)(C)C(N)CC[C@]4(C)C3CC[C@@]21C (stereo partly drawn) [Compound 5ay],2.05 ± 0.14,5.54 ± 0.24 fold,192.3 to 194.5,–
"C[C@H](CCC(C)(C)O)[C@H]1CCC2C3CC=C4C(C)(C)C(N)CC[C@]4(C)C3CC[C@@]21C (stereo partly drawn) [Compound 5as, (5R)-5-((10R,13R,17R)-3-amino-4,4,10,13-tetramethyl-tetradecahydro-1H-cyclopenta[a]phenanthren-17-yl)-2-methylhexan-2-ol]",22 ± 3.84,5.73 ± 0.32 fold,215.2 to 217.6,–
"C=CCC(O)CC[C@@H](C)[C@H]1CCC2C3CC=C4C(C)(C)C(N)CC[C@]4(C)C3CC[C@@]21C (stereo partly drawn) [Compound 5ar, (7R)-7-((10R,13R,17R)-3-amino-4,4,10,13-tetramethyl-tetradecahydro-1H-cyclopenta[a]phenanthren-17-yl)oct-1-en-4-ol]",12.9 ± 0.75,6.94 ± 0.17 fold,250.4 to 252.6,–
C[C@H](CO)[C@H]1CCC2C3CC=C4C(C)(C)C(N)CC[C@]4(C)C3CC[C@@]21C (stereo partly drawn) [Compound 5aw],35.5 ± 3.15,–,170.6 to 173.8,–
"C[C@H](CCCO)[C@H]1CCC2C3=CC=C4C(C)(C)C(N)CC[C@]4(C)C3CC[C@@]21C (stereo partly drawn) [Compound 5ak, (4R)-4-((10R,13R,17R)-3-amino-4,4,10,13-tetramethyl-2,3,4,9,10,11,12,13,14,15,16,17-dodecahydro-1H-cyclopenta[a]phenanthren-17-yl)pentan-1-ol]",20 ± 3.34,7.74 fold and 7.74 ± 0.20 fold,179.5 to 181.3,–
"C[C@H](CCCO)[C@H]1CCC2C3C(=NO)C=C4C(C)(C)C(N)CC[C@]4(C)C3CC[C@@]21C (stereo partly drawn) [Compound 5ah, (10R,13R,17R)-3-amino-17-((R)-5-hydroxypentan-2-yl)-4,4,10,13-tetramethyl-tetradecahydro-7H-cyclopenta[a]phenanthren-7-oxime]",34.4 ± 2.47,2.13 ± 0.28 fold,218.3 to 219.9,–
"C[C@H](CCCO)[C@H]1CCC2C3CC=C4C(C)(C)C(NC(=O)Nc5ccc(Cl)c(C(F)(F)F)c5)CC[C@]4(C)C3CC[C@@]21C (stereo partly drawn) [Compound 5ax, 1-(4-chloro-3-(trifluoromethyl)phenyl)-3-((10R,13R,17R)-17-((R)-5-hydroxypentan-2-yl)-4,4,10,13-tetramethyl-2,3,4,7,8,9,10,11,12,13,14,15,16,17-tetradecahydro-1H-cyclopenta[a]phenanthren-3-yl)urea]",> 50,–,221.1 to 223.7,no activity
"C=CCC(O)(CC=C)CC[C@@H](C)[C@H]1CCC2C3CC=C4C(C)(C)C(N)CC[C@]4(C)C3CC[C@@]21C (stereo partly drawn) [Compound 5av, (7R)-4-allyl-7-((10R,13R,17R)-3-amino-4,4,10,13-tetramethyl-tetradecahydro-1H-cyclopenta[a]phenanthren-17-yl)oct-1-en-4-ol]",35.8 ± 1.92,5.90 ± 0.42 fold,235.5 to 237.4,–
C[C@H](CCCO)[C@H]1CCC2C3CC=C4C(C)(C)C(N)CC[C@]4(C)C3CC[C@@]21C (stereo partly drawn) [Compound 5aa],19.2 ± 4.59,6.03 ± 0.87 fold,163.5 to 166.3,–
CCCC(O)CC[C@@H](C)[C@H]1CCC2C3CC=C4C(C)(C)C(N)CC[C@]4(C)C3CC[C@@]21C (stereo partly drawn) [Compound 5ap],38.1 ± 3.76,6.65 ± 0.35 fold,> 300,–
"CCCNC1CC[C@@]2(C)C(=CCC3C2CC[C@@]2(C)C3CC[C@@H]2[C@H](C)CCCO)C1(C)C (stereo partly drawn) [Compound 5ae, (4R)-4-((10R,13R,17R)-4,4,10,13-tetramethyl-3-(propylamino)-tetradecahydro-1H-cyclopenta[a]phenanthren-17-yl)pentan-1-ol]",> 50,–,147.5 to 150.4,–
"CC(C)C(O)CC[C@@H](C)[C@H]1CCC2C3CC=C4C(C)(C)C(N)CC[C@]4(C)C3CC[C@@]21C (stereo partly drawn) [Compound 5aq, (6R)-6-((10R,13R,17R)-3-amino-4,4,10,13-tetramethyl-tetradecahydro-1H-cyclopenta[a]phenanthren-17-yl)-2-methylheptan-3-ol]",22.1 ± 3.73,6.32 ± 0.34 fold,> 300,–
C[C@H](CCCO)[C@H]1CCC2C3CC=C4C(C)(C)C(NCCCO)CC[C@]4(C)C3CC[C@@]21C (stereo partly drawn) [Compound 5ac],30.7 ± 3.8,–,183.5 to 186.8,–
C[C@H](CCCO)[C@H]1CCC2C3C(N)C=C4C(C)(C)C(N)CC[C@]4(C)C3CC[C@@]21C (stereo partly drawn) [Compound 5aj],> 50,–,178.7 to 180.2,–
CNC(=O)CC[C@@H](C)[C@H]1CCC2C3CC=C4C(C)(C)C(N)CC[C@]4(C)C3CC[C@@]21C (stereo partly drawn) [Compound 5al],40.5 ± 6.58,6.42 ± 0.28 fold,> 300,–
C[C@H](CCCO)[C@H]1CCC2C3CC=C4C(C)(C)C(NCCCCl)CC[C@]4(C)C3CC[C@@]21C (stereo partly drawn) [Compound 5ad],47.34 ± 0.34,–,162.7 to 165.5,–
CC(O)CC[C@@H](C)[C@H]1CCC2C3CC=C4C(C)(C)C(N)CC[C@]4(C)C3CC[C@@]21C (stereo partly drawn) [Compound 5an],17.6 ± 1.75,6.33 ± 0.01 fold,> 300,–
"C[C@H](CCCO)[C@H]1CCC2C3C(=O)C=C4C(C)(C)C(N)CC[C@]4(C)C3CC[C@@]21C (stereo partly drawn) [Compound 5ag, (10R,13R,17R)-3-amino-17-((R)-5-hydroxypentan-2-yl)-4,4,10,13-tetramethyl-tetradecahydro-7H-cyclopenta[a]phenanthren-7-one]",33.8 ± 2.93,1.84 ± 0.11 fold,151.3 to 153.7,–
C[C@H](CCCO)[C@H]1CCC2C3CC=C4C(C)(C)C(NCCO)CC[C@]4(C)C3CC[C@@]21C (stereo partly drawn) [Compound 5ab],39.1 ± 3.7,–,184.3 to 187.5,–
CCC(O)CC[C@@H](C)[C@H]1CCC2C3CC=C4C(C)(C)C(N)CC[C@]4(C)C3CC[C@@]21C (stereo partly drawn) [Compound 5ao],15.5 ± 4.38,6.59 ± 0.48 fold,> 300,–
"CCCNCCC[C@@H](C)[C@H]1CCC2C3CC=C4C(C)(C)C(N)CC[C@]4(C)C3CC[C@@]21C (stereo partly drawn) [Compound 5am, (10R,13R,17R)-4,4,10,13-tetramethyl-17-((R)-5-(propylamino)pentan-2-yl)-tetradecahydro-1H-cyclopenta[a]phenanthren-3-amine]",> 50,–,> 300,–
CCCC(O)(CCC)CC[C@@H](C)[C@H]1CCC2C3CC=C4C(C)(C)C(N)CC[C@]4(C)C3CC[C@@]21C (stereo partly drawn) [Compound 5au],24.4 ± 3.61,6.42 ± 0.28 fold,242.6 to 244.9,–
